Laboratory results as given in patent US20140206624A1, “TREATMENT OF LEUKEMIA” (THE BRIGHAM AND WOMEN'S HOSPITAL, INC., priority 2011, published 2014).

Tests used:
[1] = test system: MLL-AF9 induced AML; test: MLL-AF9 BMT assay, leukemic burden (spleen weight, WBC); assay type: in vivo, mouse; settings: FoxO1/3/4 floxed
Procedure: MLL-AF9-positive FoxO1/3/4^floxed murine bone marrow (BM) cell recovered from a leukemic primary recipient mousecarrying the Mx1-Cre transgene (Mx1-Cre+) or not (Mx1-Cre−) were transplanted into sub-lethally irradiated secondary recipient mice. Fourteen days following transplant 50% of both Mx1-Cre+ and Mx1-Cre− mice were administered pI-pC and the remaining 50% of mice from each condition were given saline. At the first sign of leukemia all mice from each Mx1-Cre condition status were euthanized (Day 29 for Mx1-Cre−(saline and pI-pC treated) and Day 39 for Mx1-Cre+ (saline & pI-pC-treated)).
(§1) After transduction, infected cells were transplanted into lethally irradiated (2 doses of 450rad gIR separated by 12 hours) F1 FVB/C57/Bl6 mice. Recipient mice developed leukemia within 70-80 days with a median survival of 77 days. Mononuclear BM cells recovered from leukemic mice were then transplanted into secondary sub-lethally irradiated recipients. Fourteen days following transplant, secondary recipients were administered intra-peritoneally three doses of saline or 12.5 mg/kg pI-pC (GE Healthcare Life Sciences) every 2 days. Mice were then monitored for external (i.e. moribund) and internal (white blood cell counts) signs of leukemia.
To address whether FoxO1/3/4 are essential to maintain MLL-AF9 induced AML in vivo, a MLL-AF9 bone marrow transplant (BMT) assay was used in a mouse bearing homozygous Lox-P flanked (floxed) alleles of FoxO1/3/4 and the interferon-inducible Mx1-Cre transgene (FoxO1/3/4^floxed; Mx1-Cre+; MLL-AF9). MLL-AF9 transformed FoxO1/3/4^floxed BM cells without the Mx1-Cre transgene (FoxO1/3/4^floxed; Mx1-Cre−; MLL-AF9) were used as controls. Leukemia cells from each context (recovered from primary recipients displaying frank leukemia) were harvested and transplanted into sub-lethally irradiated recipients. Fourteen days post-transplant, secondary recipients receiving FoxO1/3/4^floxed; Mx1-Cre+; MLL-AF9 cells or FoxO1/3/4^floxed; Mx1-Cre−; MLL-AF9 controls were either administered polyinosine-polycytidyline (pI-pC) to induce excision of FoxO1/3/4 floxed alleles or saline control (FIG. 9A). At the first presentation of AML, all mice from each group (Mx1-Cre− versus Mx1-Cre+) were euthanized and assessed for leukemic burden as defined by spleen weight and peripheral white blood cell (WBC) counts. […] In contrast, pI-pC-treated FoxO1/3/4^floxed; Mx1-Cre+; MLL-AF9 transplant mice retained normal spleen weights and WBC counts (FIGS. 9B-D and 10A).

[2] = test system: MLL-AF9 induced AML; test: MLL-AF9 BMT assay, WBC monitoring and survival/latency; assay type: in vivo, mouse
Text: WBC analysis of peripheral blood collected every 4-14 days post-transplant from Mx1-Cre+ saline and pI-pC-treated mice. Data is independent from Panel C (n=4).
Kaplan-Meier survival curve analysis of recipient mice Mx1-Cre− transplanted and treated as described above; n=6, p=0.6899.
Kaplan-Meier survival curve analysis of recipient mice Mx1-Cre+ transplanted and treated as described above. (p=0.0009; n=10).
as §1
To distinguish whether disrupting FoxO1/3/4 expression eliminated MLL-AF9 leukemia or merely delayed the onset, FoxO1/3/4^floxed; Mx1-Cre−; MLL-AF9 and FoxO1/3/4^floxed; Mx1-Cre+; MLL-AF9 leukemic cells were separately transplanted into sub-lethally irradiated recipients. Fourteen days post-transplant, mice were administered either pI-pC or saline and subsequently monitored daily for clinical signs of leukemia. Peripheral blood from recipient mice was collected and analyzed for WBC counts every 4-14 days. Mice were euthanized upon displaying external morbidity and/or elevated WBC counts. […] However, despite efficient excision of FoxO1/3/4 (FIGS. 10C-10F) the majority of mice eventually succumbed to leukemia (FIG. 9F).

[3] = Mx1-Cre+, MLL-AF9 mice, pI-pC induces excision of FoxO1/3/4

polyinosine-polycytidyline [pI-pC] was tested, and the WBC counts [1, 3] was “normal”, the spleen weights [1, 3] was “normal” and the “lymphoid-myeloid ratio in peripheral blood” value ([1]; Mx1-Cre+, MLL-AF9 mice, data not shown) was “normal lymphoid-myeloid ratio”. The splenomegaly and leukocytosis ([1]; Mx1-Cre−, MLL-AF9 recipients (no excision)) was “developed splenomegaly and leukocytosis”, the “latency for the onset of AML” value ([2]; Mx1-Cre+ leukemic cells, excision of FoxO1/3/4) was “significantly longer latency” and the WBC counts ([2]; Mx1-Cre+ mice, blood every 4-14 days) was “lower WBC counts than saline-treated controls”. For the same substance, the “mice disease-free up to 5 months post-excision” value ([2]; Mx1-Cre+, n=10) was 20%.
